# Several values for one entry are separate records, joined by “and”; a condition that tells them apart may be missing. Equal entries are not always repeated. Starred links: 1 amine or outer side, 2 acyl side, 3 side chain; linkers in the order of their positions; H or OH if unused. Positions of bridges follow the written chain, without caps; N, C: chain ends. Non-standard residues stand in square brackets, D forms with d. Residues, ends and D or L forms follow the SMILES beside them. *: point of attachment. X1 = CC[C@H](C)[C@@H](N[*:1])[C@@H](O)CC(=O)O[C@H](C(=O)[C@H](C)C(=O)[*:2])C(C)C; NMeY = CN[C@@H](Cc1ccc(O)cc1)C(=O)O; dNMeL = CN[C@H](CC(C)C)C(=O)O; Pyruvoyl = CC(=O)C(=O)*
# Experiments:
# SARS-CoV-2 [1] = assay: APLICOV-PC: SARS-CoV-2 viral load by qRT-PCR of nasopharyngeal samples; assay type: in vivo, human; conditions: for mean viral load decline from baseline: all doses; for log10 viral load: individual patients, ND = not detected
# Method: Secondary outcomes included change from baseline of viral load, as evaluated by quantitative PCR via central laboratory on nasopharyngeal exudate or sampled from the lower respiratory tract within 48 h before first administration of plitidepsin and on days 4, 7, 15, and 31, and the percentage of patients requiring oxygen therapy, noninvasive mechanical ventilation, invasive mechanical ventilation and/or intensive care unit admission, and the percentage of patients with a fatal outcome on days 7, 15, and 31.
# Centralized assessments of nasopharyngeal samples were performed at SYNLAB. Viral RNA extraction from the samples was performed using the Maxwell HT Viral TNA (AX2340) Promega, on the Hamilton automated extraction platform. Detection of nCoV2019 was carried out with the kit: TaqPath TM COVID-19 RT-PCR KIT (A48102) Thermo Fisher Scientific. The positivity/negativity criteria used for the interpretation of the results are defined in Table S7.
# Each sample was analyzed in triplicate, and the cycle threshold (CT) value obtained was extrapolated to the standard curve, so that a value of viral load is obtained per reaction for said sample. The quantification, in triplicate, of the viral load of the patient sample was carried out at each of the five time points.
# For quantification, in each sample plate, eight points, in triplicate (24 PCR in total), of the plasmid IDT 2019 nCov Kit CDC EUA of known viral load was used to generate the standard line on which to extrapolate the results of the samples of the trial patients. The sensitivity of the analytical method is 10 mRNA copies/run. Assuming a starting sample volume of 200 μl, from which 100 μl of mRNA can be obtained, and that a single PCR run requires 5 μl mRNA, it can be estimated that the sensitivity for 100% of the replicates is 1,000 mRNA copies/ml (3 log10). For mathematical analysis and graphical visualization, an intermediate value of 1.5 log10 has been imputed to samples with undetected SARS-CoV-2 mRNA.
# SARS-CoV-2 [2] = assay: SARS-CoV-2-induced cytopathic effect in Vero E6 cells (CellTiter-Glo); conditions: read-out: IC50 against SARS-CoV-2-induced cytopathic effects, 3 d post infection
# CYP3A4 = test system: CYP3A4; set-up: method as in study protocol; conditions: in vitro studies; ref study protocol; cited from earlier work
# [3] = Tissue distribution of total radioactivity after single IV bolus of [14C]plitidepsin; assay type: in vivo, Sprague–Dawley rats; conditions: rat, 0.2 mg/kg i.v. bolus
# Method: An in vivo distribution study was carried out in rats. PM140064 (14C1-Plitidepsin) was supplied by PharmaMar at a radiochemical purity of 95% or greater, with no single impurity 3% or greater. The study was conducted at Aptuit Srl ([54]).
# 24 male and 24 female Sprague–Dawley rats each received a single IV bolus administration of [14C] Plitidepsin at a target dose of 0.2 mg/kg. After administration, three animals per time-point (0.25, 1, 2, 4, 8, 24, 48, and 72 h post-dose) were exsanguinated from the abdominal aorta and blood retained. Actual times of bleeding were recorded. In addition to blood, the following tissues were collected: brain, eyeballs, heart, liver, lung, skeletal muscle (quadriceps), fat, kidneys, stomach, skin, small intestine, spleen, thyroid, lymph nodes, and testes or ovaries. At the end of the collection period animals were euthanized by CO2 asphyxiation and the carcasses were discarded. Additional animals were bled to obtain control blood/plasma and tissues.
# SARS-CoV-2 [4] = test system: SARS-CoV-2; set-up: method as in PMID 33495306; conditions: SARS-CoV-2 in vitro; cited from earlier work
# SARS-CoV-2 B.1.1.7 = assay: microbe, parasite or virus in culture; assay type: cell-based; conditions: 24 h, mean ± SEM
smiles,measurement,setting,value
CC[C@H](C)[C@H]1NC(=O)[C@@H](NC(=O)[C@@H](CC(C)C)N(C)C(=O)[C@@H]2CCCN2C(=O)C(C)=O)[C@@H](C)OC(=O)[C@H](Cc2ccc(OC)cc2)N(C)C(=O)[C@@H]2CCCN2C(=O)[C@H](CC(C)C)NC(=O)[C@@H](C)C(=O)[C@H](C(C)C)OC(=O)C[C@@H]1O [Plitidepsin] (Pyruvoyl-P[dNMeL]T[X1]LP[NMeY](Me); ester 3-C),Mean time from baseline until undetectable viral load,SARS-CoV-2 [1]; 1.5 mg,11 days
same,Mean time from baseline until undetectable viral load,SARS-CoV-2 [1]; 2.0 mg,14 days
same,Mean time from baseline until undetectable viral load,SARS-CoV-2 [1]; 2.5 mg,14 days
same,Mean change in viral load from baseline to,"SARS-CoV-2 [1]; Day 4, 1.5 mg",−1.23 log10 copies/ml
same,Mean change in viral load from baseline to,"SARS-CoV-2 [1]; Day 4, 2.0 mg",−1.49 log10 copies/ml
same,Mean change in viral load from baseline to,"SARS-CoV-2 [1]; Day 4, 2.5 mg",−1.32 log10 copies/ml
same,Mean change in viral load from baseline to,"SARS-CoV-2 [1]; Day 4, Total",−1.35 log10 copies/ml
same,Mean change in viral load from baseline to,"SARS-CoV-2 [1]; Day 7, 1.5 mg",−2.55 log10 copies/ml
same,Mean change in viral load from baseline to,"SARS-CoV-2 [1]; Day 7, 2.0 mg",−2.26 log10 copies/ml
same,Mean change in viral load from baseline to,"SARS-CoV-2 [1]; Day 7, 2.5 mg",−2.25 log10 copies/ml
same,Mean change in viral load from baseline to,"SARS-CoV-2 [1]; Day 7, Total",−2.35 log10 copies/ml
same,Mean change in viral load from baseline to,"SARS-CoV-2 [1]; Day 15, 1.5 mg",−4.22 log10 copies/ml
same,Mean change in viral load from baseline to,"SARS-CoV-2 [1]; Day 15, 2.0 mg",−2.70 log10 copies/ml
same,Mean change in viral load from baseline to,"SARS-CoV-2 [1]; Day 15, 2.5 mg",−2.92 log10 copies/ml
same,Mean change in viral load from baseline to,"SARS-CoV-2 [1]; Day 15, Total",−3.25 log10 copies/ml
same,Mean change in viral load from baseline to,"SARS-CoV-2 [1]; Day 31, 1.5 mg",−4.70 log10 copies/ml
same,Mean change in viral load from baseline to,"SARS-CoV-2 [1]; Day 31, 2.0 mg",−3.53 log10 copies/ml
same,Mean change in viral load from baseline to,"SARS-CoV-2 [1]; Day 31, 2.5 mg",−3.49 log10 copies/ml
same,Mean change in viral load from baseline to,"SARS-CoV-2 [1]; Day 31, Total",−3.85 log10 copies/ml
same,Mean time from baseline until undetectable viral load,SARS-CoV-2 [1]; Total,13 days
same,mean viral load decline from baseline,SARS-CoV-2 [1]; day 4,1.35 log10 copies/ml
same,mean viral load decline from baseline,SARS-CoV-2 [1]; day 7,2.35 log10 copies/ml
same,mean viral load decline from baseline,SARS-CoV-2 [1]; day 15,3.25 log10 copies/ml
same,mean viral load decline from baseline,SARS-CoV-2 [1]; day 31,3.85 log10 copies/ml
same,log10 viral load,"SARS-CoV-2 [1]; 1.5 mg/d, Day 4",5.14 copies/ mL and 3.25 copies/ mL and 8.4 copies/ mL and 9.54 copies/ mL and 6.54 copies/ mL and 3.61 copies/ mL and 7.39 copies/ mL and 4.02 copies/ mL and 6.56 copies/ mL and 5.76 copies/ mL
same,log10 viral load,"SARS-CoV-2 [1]; 1.5 mg/d, Day 7",8.47 copies/ mL and 6.63 copies/ mL and 4.34 copies/ mL and 4.7 copies/ mL and 5.83 copies/ mL and 4.71 copies/ mL and 3.82 copies/ mL
same,log10 viral load,"SARS-CoV-2 [1]; 1.5 mg/d, Day 15",6.05 copies/ mL and 7.46 copies/ mL
same,log10 viral load,"SARS-CoV-2 [1]; 1.5 mg/d, Day 31",4.42 copies/ mL
same,log10 viral load,"SARS-CoV-2 [1]; 2 mg/d, Day 4",7.95 copies/ mL and 4.46 copies/ mL and 5.3 copies/ mL and 6.17 copies/ mL and 4.53 copies/ mL and 4.47 copies/ mL and 5.34 copies/ mL and 5.99 copies/ mL and 5.69 copies/ mL and 5.5 copies/ mL
same,log10 viral load,"SARS-CoV-2 [1]; 2 mg/d, Day 7",6.52 copies/ mL and 4.68 copies/ mL and 4.59 copies/ mL and 3.38 copies/ mL and 4.02 copies/ mL and 3.62 copies/ mL and 4.33 copies/ mL and 2.89 copies/ mL and 5.2 copies/ mL and 5.49 copies/ mL
same,log10 viral load,"SARS-CoV-2 [1]; 2 mg/d, Day 15",8.14 copies/ mL and 5.52 copies/ mL and 5.22 copies/ mL and 4.43 copies/ mL and 4.92 copies/ mL
same,log10 viral load,"SARS-CoV-2 [1]; 2 mg/d, Day 31",7.37 copies/ mL and 4.31 copies/ mL and 4.69 copies/ mL
same,log10 viral load,"SARS-CoV-2 [1]; 2.5 mg/d, Day 4",4.3 copies/ mL and 5.45 copies/ mL and 4.37 copies/ mL and 4.77 copies/ mL and 5.57 copies/ mL and 6.26 copies/ mL and 8.67 copies/ mL and 9.84 copies/ mL and 3.79 copies/ mL and 9.25 copies/ mL
same,log10 viral load,"SARS-CoV-2 [1]; 2.5 mg/d, Day 7",3.05 copies/ mL and 4.44 copies/ mL and 5.49 copies/ mL and 3.33 copies/ mL and 7.29 copies/ mL and 9.54 copies/ mL and 6.99 copies/ mL
same,log10 viral load,"SARS-CoV-2 [1]; 2.5 mg/d, Day 15",3.8 copies/ mL and 5.66 copies/ mL and 5.92 copies/ mL and 8.33 copies/ mL
same,log10 viral load,"SARS-CoV-2 [1]; 2.5 mg/d, Day 31",3.6 copies/ mL and 5.33 copies/ mL and 4.68 copies/ mL
same,mean time to undetectable viral load,SARS-CoV-2 [1]; patients with mild or moderate disease at baseline,12 days
same,mean time to undetectable viral load,SARS-CoV-2 [1]; patients with severe disease at baseline,15 days
same,IC50,SARS-CoV-2 [2],38 nM
same,major enzyme involved in plitidepsin metabolism,CYP3A4,CYP3A4
same,lung-blood (LBR) AUC ratio,[3],around 8 fold
same,IC90,SARS-CoV-2 [4],0.88 nM
same,IC50,"SARS-CoV-2 B.1.1.7; Severe acute respiratory syndrome coronavirus 2, Caco-2, pretreated 2 h",6.12 nM
same,IC50,"SARS-CoV-2 B.1.1.7; Severe acute respiratory syndrome coronavirus 2, Calu-3, pretreated 2 h",5.87 nM

# Reference: article PMC8761492 (Life Science Alliance, 2022)
